target: T1, CDK12 (Homo sapiens, UniProt Q9NYV4); assay: Radiometric protein kinase assay (33PanQinase), assay condition 1, thiol-free conditions; assay type: biochemical; conditions: thiol-free conditions (1 mM TCEP), ATP at apparent Km
T1 construct: ProQinase (named as the party running the assay)
Method: Example 2 —Assay condition 1 (thiol-free conditions)
The IC50 profile of compounds was determined using protein kinase in a customized, thiol free assay. IC50 values were measured by testing 10 concentrations (1×10^−05 M to 3×10^−10 M) of each test compound in singlicate against each kinase of interest. Prior to testing, the 1×10^−03M stock solutions in column 2 of the master plates were subjected to a serial, semi-logarithmic dilution using 100% DMSO as a solvent. […] Column 1 and 7 were filled with 100% DMSO as controls. Subsequently, 2×10 microliter from each well of the serial diluted copy plates were aliquoted with a 96 channel pipettor into two identical sets of “compound dilution plates”. All plates were barcoded for automated identification and tracking purposes. IC50 values were measured by testing 10 concentrations (1×10^−05 M to 3×10^−10 M) of each compound in singlicate. All compounds were stored as powder until being solubilized in DMSO. Solubilized compounds were stored as 1×10^−02 M/100% DMSO stock solutions. Prior to the assay process, 90 microliters of H2O were added to each well of a set of compound dilution plates. To minimize potential precipitation, the H2O was added to each plate only a few minutes before the transfer of the compound solutions into the assay plates. Each plate was shaken thoroughly, resulting in compound dilution plates with a final of 10% DMSO. For each assay, 5 microliters of solution from each well of the compound dilution plates/10% DMSO were transferred into the assay plate. The final volume of the assay was 50 μl. All compounds were tested at 10 final assay concentrations in the range from 1×10^−05 M to 3×10^−10 M, in singlicate. The final DMSO concentration in the reaction cocktails was 1% in all cases. A radiometric protein kinase assay (33PanQinase® Activity Assay) was used for measuring the kinase activity of the protein kinase. All kinase assays were performed in 96-well FlashPlates™ from PerkinElmer (Boston, Mass., USA) in a 50 microliter reaction volume. The reaction cocktail was pipetted in four steps in the following order: 20 microliter of assay buffer (standard buffer) 5 microliter of ATP solution (in H2O) 5 microliter of test compound (in 10% DMSO) 20 microliter enzyme/subtrate mix. Each assay for the protein kinase contained 70 mM HEPES-NaOH pH 7.5, 3 mM MgCl2, 3 mM MnCl2, 3 microM Na-orthovanadate, 1 mM TCEP, 50 μg/ml PEG20000, ATP (corresponding to the apparent ATP-Km of the kinase, see Table A), [gamma-33P]-ATP (approx. 6×10×E5 cpm per well), with the protein kinase and relevant substrate being used in pre-determined amounts, depending on the kinase in question. For all experiments labeled as “Thiol-free”, all glutathione was exchanged from protein preparations so as to be removed from the assay and final buffer conditions contained no thiol- containing reagents. This was done so there would be no interference with the key cysteines in the proteins of interest.
For data analysis, the median value of the counts in column 1 (n=8) of each assay plate was defined as “low control”. This value reflects unspecific binding of radioactivity to the plate in the absence of a protein kinase but in the presence of the substrate. The median value of the counts in column 7 of each assay plate (n=8) was taken as the “high control”, i.e. full activity in the absence of any inhibitor. The difference between high and low control was taken as 100% activity. As part of the data evaluation the low control value from a particular plate was subtracted from the high control value as well as from all 80 “compound values” of the corresponding plate. The residual activity (in %) for each well of a particular plate was calculated by using the following formula:
Res. Activity (%)=100×[(cpm of compound−low control)/(high control−low control)] […]

T1 sequence (Q9NYV4 whole entry): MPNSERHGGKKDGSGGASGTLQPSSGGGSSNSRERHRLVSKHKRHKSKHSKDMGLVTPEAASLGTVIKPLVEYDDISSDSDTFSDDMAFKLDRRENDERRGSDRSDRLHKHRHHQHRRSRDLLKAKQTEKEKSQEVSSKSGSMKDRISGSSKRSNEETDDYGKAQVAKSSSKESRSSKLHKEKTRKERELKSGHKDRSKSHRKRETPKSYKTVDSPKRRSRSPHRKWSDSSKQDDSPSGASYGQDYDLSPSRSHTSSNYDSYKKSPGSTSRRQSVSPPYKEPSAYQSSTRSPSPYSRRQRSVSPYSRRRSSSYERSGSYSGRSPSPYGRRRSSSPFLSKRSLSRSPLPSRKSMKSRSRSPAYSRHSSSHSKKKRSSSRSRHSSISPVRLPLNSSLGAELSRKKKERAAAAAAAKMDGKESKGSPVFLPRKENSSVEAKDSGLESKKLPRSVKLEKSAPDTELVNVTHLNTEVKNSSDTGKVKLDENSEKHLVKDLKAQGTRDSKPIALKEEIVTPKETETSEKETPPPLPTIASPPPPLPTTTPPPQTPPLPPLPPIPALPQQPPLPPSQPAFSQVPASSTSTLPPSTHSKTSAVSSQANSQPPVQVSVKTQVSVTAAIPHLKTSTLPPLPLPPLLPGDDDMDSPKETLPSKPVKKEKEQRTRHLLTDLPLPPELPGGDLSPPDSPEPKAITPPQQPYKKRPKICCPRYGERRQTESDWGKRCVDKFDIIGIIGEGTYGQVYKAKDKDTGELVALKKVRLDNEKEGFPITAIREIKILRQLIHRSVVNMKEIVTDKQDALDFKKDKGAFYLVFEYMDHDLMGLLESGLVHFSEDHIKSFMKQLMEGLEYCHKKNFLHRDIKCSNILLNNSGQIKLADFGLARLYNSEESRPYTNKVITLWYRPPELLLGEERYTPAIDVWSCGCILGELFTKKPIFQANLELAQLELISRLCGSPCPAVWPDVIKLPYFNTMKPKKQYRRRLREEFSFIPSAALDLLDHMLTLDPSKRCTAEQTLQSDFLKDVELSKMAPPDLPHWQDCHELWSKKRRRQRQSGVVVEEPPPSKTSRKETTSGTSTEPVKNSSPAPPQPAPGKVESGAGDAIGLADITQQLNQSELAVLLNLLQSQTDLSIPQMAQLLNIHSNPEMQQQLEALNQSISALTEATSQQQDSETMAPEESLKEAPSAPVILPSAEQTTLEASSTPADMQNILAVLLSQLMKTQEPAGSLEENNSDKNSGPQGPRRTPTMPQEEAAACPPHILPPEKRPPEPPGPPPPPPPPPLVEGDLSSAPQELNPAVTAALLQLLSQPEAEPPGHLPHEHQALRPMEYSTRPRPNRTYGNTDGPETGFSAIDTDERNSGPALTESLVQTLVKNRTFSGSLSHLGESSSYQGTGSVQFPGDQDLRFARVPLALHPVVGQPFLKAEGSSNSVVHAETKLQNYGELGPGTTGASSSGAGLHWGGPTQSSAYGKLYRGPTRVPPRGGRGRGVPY
T1 sequence (O75909 whole entry partner): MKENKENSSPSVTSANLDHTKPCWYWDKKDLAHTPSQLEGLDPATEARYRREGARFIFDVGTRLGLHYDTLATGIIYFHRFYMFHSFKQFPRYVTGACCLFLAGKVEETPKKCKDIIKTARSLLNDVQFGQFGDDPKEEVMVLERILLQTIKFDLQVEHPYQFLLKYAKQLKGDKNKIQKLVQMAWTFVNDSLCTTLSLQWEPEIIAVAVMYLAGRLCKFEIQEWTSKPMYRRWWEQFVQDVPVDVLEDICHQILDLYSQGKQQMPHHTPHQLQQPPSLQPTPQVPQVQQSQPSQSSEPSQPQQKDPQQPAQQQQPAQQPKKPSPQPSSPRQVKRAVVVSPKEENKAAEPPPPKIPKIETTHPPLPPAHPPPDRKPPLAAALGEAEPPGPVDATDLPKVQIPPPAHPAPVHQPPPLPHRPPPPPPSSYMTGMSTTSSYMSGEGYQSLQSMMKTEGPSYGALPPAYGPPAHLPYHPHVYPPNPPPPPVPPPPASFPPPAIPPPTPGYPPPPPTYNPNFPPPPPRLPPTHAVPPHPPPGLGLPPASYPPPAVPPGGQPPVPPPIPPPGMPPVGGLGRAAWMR

| SMILES | IC50 [nM] |
| --- | --- |
| C=CC(=O)Nc1ccc2c(N3CC[C@@H](Nc4ncc(Cl)c(OCC)n4)C3)ncnc2c1 [Example 3, (R)-N-(4-(3-((5-chloro-4-ethoxypyrimidin-2-yl)amino)pyrrolidin-1-yl)quinazolin-7-yl)acrylamide] | ≤ 100 |
| C=CC(=O)Nc1ccc2c(N3CC[C@@H](Nc4ncc(Cl)c(OC)n4)C3)ncnc2c1 [Example 4, (R)-N-(4-(3-((5-chloro-4-methoxypyrimidin-2-yl)amino)pyrrolidin-1-yl)quinazolin-7-yl)acrylamide] | ≤ 100 |
| C=CC(=O)Nc1ccc2c(N3CC[C@@H](Nc4ncc(Br)c(OC)n4)C3)ncnc2c1 [Example 5, (R)-N-(4-(3-((5-bromo-4-methoxypyrimidin-2-yl)amino)pyrrolidin-1-yl)quinazolin-7-yl)acrylamide] | ≤ 100 |
| C=CC(=O)Nc1ccc2c(N3CC[C@@H](Nc4ncc(C(F)(F)F)c(N)n4)C3)ncnc2c1 [Example 6, (R)-N-(4-(3-((4-amino-5-(trifluoromethyl)pyrimidin-2-yl)amino)pyrrolidin-1-yl)quinazolin-7-yl)acrylamide] | ≤ 100 |
| C=CC(=O)Nc1ccc2c(N3CC[C@@H](Nc4ncc(Cl)c(Oc5ccccc5)n4)C3)ncnc2c1 [Example 7, (R)-N-(4-(3-((5-chloro-4-phenoxypyrimidin-2-yl)amino)pyrrolidin-1-yl)quinazolin-7-yl)acrylamide] | 100 to 1000 |
| C=CC(=O)Nc1ccc2c(N3CC[C@@H](Nc4ncc5cc(F)ccc5n4)C3)ncnc2c1 [Example 8, (R)-N-(4-(3-((6-fluoroquinazolin-2-yl)amino)pyrrolidin-1-yl)quinazolin-7-yl)acrylamide] | ≤ 100 |
| C=CC(=O)Nc1ccc2c(N3CC[C@@H](Nc4ncc(Cl)c(C(F)(F)F)n4)C3)ncnc2c1 [Example 9, (R)-N-(4-(3-((5-chloro-4-(trifluoromethyl)pyrimidin-2-yl)amino)pyrrolidin-1-yl)quinazolin-7-yl)acrylamide] | ≤ 100 |
| C=CC(=O)Nc1ccc2c(N3CC[C@@H](Nc4ncc5ccccc5n4)C3)ncnc2c1 [Example 13, (R)-N-(4-(3-(quinazolin-2-ylamino)pyrrolidin-1-yl)quinazolin-7-yl)acrylamide] | ≤ 100 |
| C=CC(=O)Nc1ccc2c(N3CC[C@@H](Nc4ncc(Cl)c(NC)n4)C3)ncnc2c1 [Example 14, (R)-N-(4-(3-((5-chloro-4-(methylamino)pyrimidin-2-yl)amino)pyrrolidin-1-yl)quinazolin-7-yl)acrylamide] | ≤ 100 |
| C=CC(=O)Nc1ccc2c(N3CC[C@@H](Nc4ncc(C(F)(F)F)c(NC)n4)C3)ncnc2c1 [Example 15, (R)-N-(4-(3-((4-(methylamino)-5-(trifluoromethyl)pyrimidin-2-yl)amino)pyrrolidin-1-yl)quinazolin-7-yl)acrylamide] | ≤ 100 |
| C=CC(=O)Nc1ccc2c(N3CC[C@@H](Nc4ncc(Br)cn4)C3)nc(N3CCOCC3)nc2c1 [Example 20, (R)-N-(4-(3-((5-bromopyrimidin-2-yl)amino)pyrrolidin-1-yl)-2-morpholinoquinazolin-7-yl)acrylamide] | ≤ 100 |

Further lines, results first:

| IC50 [nM] | SMILES |
| --- | --- |
| 100 to 1000 | C=CC(=O)Nc1ccc2c(N3CC[C@@H](Nc4ncc(Cl)cn4)C3)ncnc2c1 [Example 1, (R)-N-(4-(3-((5-chloropyrimidin-2-yl)amino)pyrrolidin-1-yl)quinazolin-7-yl)acrylamide] |
| ≤ 100 | C=CC(=O)Nc1ccc2c(N3CC[C@@H](Nc4ncc(C(F)(F)F)cn4)C3)ncnc2c1 [Example 2, (R)-N-(4-(3-((5-(trifluoromethyl)pyrimidin-2-yl)amino)pyrrolidin-1-yl)quinazolin-7-yl)acrylamide] |
| ≤ 100 | C=CC(=O)Nc1ccc2c(N3CC[C@@H](Nc4ncc(C5CC5)cn4)C3)ncnc2c1 [Example 10, (R)-N-(4-(3-((5-cyclopropylpyrimidin-2-yl)amino)pyrrolidin-1-yl)quinazolin-7-yl)acrylamide] |
| ≤ 100 | C=CC(=O)Nc1ccc2c(N3CC[C@@H](Nc4ncc5sccc5n4)C3)ncnc2c1 [Example 11, (R)-N-(4-(3-(thieno [3,2-d]pyrimidin-2-ylamino)pyrrolidin-1-yl)quinazolin-7-yl)acrylamide] |
| ≤ 100 | C=CC(=O)Nc1ccc2c(N3CC[C@@H](Nc4ncc(C#N)cn4)C3)ncnc2c1 [Example 12, (R)-N-(4-(3-((5-cyanopyrimidin-2-yl)amino)pyrrolidin-1-yl)quinazolin-7-yl)acrylamide] |
| ≤ 100 | C=CC(=O)Nc1ccc2c(N3CC[C@@H](Nc4ncc5ccncc5n4)C3)ncnc2c1 [Example 16, (R)-N-(4-(3-(pyrido [3,4-d]pyrimidin-2-ylamino)pyrrolidin-1-yl)quinazolin-7-yl)acrylamide] |
| ≤ 100 | C=CC(=O)Nc1ccc2c(N3CC[C@@H](Nc4ncc(Br)cn4)C3)nccc2c1 [Example 18, (R)-N-(1-(3-((5-bromopyrimidin-2-yl)amino)pyrrolidin-1-yl)isoquinolin-6-yl)acrylamide] |
| ≤ 100 | C=CC(=O)Nc1ccc2c(N3CC[C@@H](Nc4ncc(Cl)c(OCC)n4)C3)nccc2c1 [Example 19, (R)-N-(1-(3-((5-chloro-4-ethoxypyrimidin-2-yl)amino)pyrrolidin-1-yl)isoquinolin-6-yl)acrylamide] |
| ≤ 100 | C=CC(=O)Nc1ccc2c(N3CC[C@@H](Nc4ncc(Br)cn4)C3)nc(C)nc2c1 [Example 21, (R)-N-(4-(3-((5-bromopyrimidin-2-yl)amino)pyrrolidin-1-yl)-2-methylquinazolin-7-yl)acrylamide] |
| 100 to 1000 | C=CC(=O)Nc1ccc2c(N3CC[C@@H](Nc4ncc(C#N)cn4)C3)nc(N3CCOCC3)nc2c1 [Example 22, (R)-N-(4-(3-((5-cyanopyrimidin-2-yl)amino)pyrrolidin-1-yl)-2-morpholinoquinazolin-7-yl)acrylamide] |
| ≤ 100 | C=CC(=O)Nc1ccc2c(N3CC[C@@H](Nc4ncc(C#N)cn4)C3)nc(N3CCN(C)CC3)nc2c1 [Example 24, (R)-N-(4-(3-((5-cyanopyrimidin-2-yl)amino)pyrrolidin-1-yl)-2-(4-methylpiperazin-1-yl)quinazolin-7-yl)acrylamide] |
| ≤ 100 | C=CC(=O)Nc1ccc2c(N3CC[C@@H](Nc4ncc(Br)cn4)C3)ncnc2c1 [Example 25, (R)-N-(4-(3-((5-bromopyrimidin-2-yl)amino)pyrrolidin-1-yl)quinazolin-7-yl)acrylamide] |
| ≤ 100 | C=CC(=O)Nc1ccc2c(N3CC[C@@H](Nc4ncc(C#N)cn4)C3)nccc2c1 [Example 26, (R)-N-(1-(3-((5-cyanopyrimidin-2-yl)amino)pyrrolidin-1-yl)isoquinolin-6-yl)acrylamide] |
| ≤ 100 | C=CC(=O)N(C)c1ccc2c(N3CC[C@@H](Nc4ncc(Br)cn4)C3)nccc2c1 [Example 27, (R)-N-(1-(3-((5-bromopyrimidin-2-yl)amino)pyrrolidin-1-yl)isoquinolin-6-yl)-N-methylacrylamide] |
| ≤ 100 | C/C=C/C(=O)Nc1ccc2c(N3CC[C@@H](Nc4ncc(Br)cn4)C3)nccc2c1 [Example 28, (R,E)-N-(1-(3-((5-bromopyrimidin-2-yl)amino)pyrrolidin-1-yl)isoquinolin-6-yl)but-2-enamide] |
| 100 to 1000 | C=CC(=O)Nc1ccc2c(N3CC[C@@H](Nc4ncc(C#N)cn4)C3)nc(N3CCCC3)nc2c1 [Example 29, (R)—N-(4-(3-((5-cyanopyrimidin-2-yl)amino)pyrrolidin-1-yl)-2-(pyrrolidin-1-yl)quinazolin-7-yl)acrylamide] |
| ≤ 100 | C=CC(=O)Nc1ccc2c(N3CC[C@@H](Nc4ncc(C#N)cn4)C3)nc(C)nc2c1 [Example 30, (R)—N-(4-(3-((5-cyanopyrimidin-2-yl)amino)pyrrolidin-1-yl)-2-methylquinazolin-7-yl)acrylamide] |

Source: patent US20220388990A1, “INHIBITORS OF CYCLIN-DEPENDENT KINASES” (Kinnate Biopharma Inc., priority 2019, published 2022)
